≈ marks a conversion by molar mass, not a printed value. Where two headings read alike, the source gives them in different places.
Legend:
[1] = In vivo pharmacokinetic test in rats (Test Example 5); conditions: plasma, rat, intravenous bolus 2 mg/kg
Procedure: Rats were used as the test animals. The plasma drug concentration at different time points after administration of the compounds of Example 1 and Example 2 by injection was determined using LC/MS/MS method. The in vivo pharmacokinetic of the compounds in rats was studied, and the pharmacokinetic characteristics were evaluated.
A certain amount of the compounds of Example 1 and Example 2 were weighed and prepared into a pH=4.0 solution by using 20 mmol/L sodium dihydrogen phosphate for later use.
The drug was administered by intravenous bolus injection with an injection time of about 5 min, administration dose of 2 mg/kg, administration concentration of 0.4 mg/ml and administration volume of 5 ml/kg.
Blood was collected from the orbital vein before administration and 5 min, 0.25 h, 0.5 h, 1 h, 2 h, 4 h, 6 h, 8 h, 10 h, 24 h and 48 h after administration. About 0.6 mL was collected for each sample which was subject to anticoagulation using heparin sodium and placed on ice immediately after collection. The blood samples were placed in labeled centrifuge tubes after collection, and plasma was separated by centrifugation (centrifugation conditions: centrifugal force 2200 g, centrifugation at 2-8° C. for 10 min).

[2] = Metabolism in plasma of rat (Test Example 4); type: in vitro ADME; set-up: unit not given here
Procedure: (§1) 5 μL of the 16 μM working solution of the compound of Example 5 was added to 75 μL plasma at a final concentration of 1 μM. The samples were incubated in a 37° C. water bath for 0, 15, 30, 60, 90, 120 and 180 min. After completion of the incubation, 240 μL of internal standard containing acetonitrile was added into the samples which was then shaken on a shaker at 800 rpm for 10 min and centrifuged at 3700 rpm at 4° C. for 20 min. The supernatant was analyzed by LC-MS, and the injection volume was 2 μL.
(§2) The metabolism of the compounds of Example 1, Example 2 and Example 8 in the plasma of mouse, rat and human was determined by referring to the test method in Test Example 2.

[3] = Chemical stability of the compounds (Test Example 1); type: physicochemical; conditions: purity loss after placing for 7 days; 4° C. and room temperature
Procedure: 2.1 Test of Stability of the Compounds
About 1 mg of sample was weighed into a vial, then the vial was placed in a vacuum bag and the bag was vacuumized. Then the bag was put into a container containing color-changing silica gel and sealed. Two parallel samples were prepared. Enough samples were prepared according to the sampling time point and placed at 4° C. and room temperature respectively.

[4] = Water solubility (Test Example 1); type: physicochemical; conditions: aqueous buffer, thermodynamic from solid
Procedure: 1.1. Preparation of Reagents
The 100 mL strength reagents were prepared as follows:
pH=3.0: phosphate buffer solution: 100 ml of 20 mmol/L NaH2PO4, 0.1M H3PO4, adjusting pH to 3.0.
pH=4.0: phosphate buffer solution: 100 ml of 20 mmol/L NaH2PO4, 0.1M H3PO4, adjusting pH to 4.0. […]
An appropriate amount of test compound was accurately weighed. The solution was added at a small amount each time for several times and stirred until the compound was dissolved, and the content of the compound in the solution was determined.

[5] = Metabolism in human plasma (Test Example 4); type: in vitro ADME; set-up: plasma concentration of the compounds of the examples: unit not given here
Procedure: as §1, §2

[6] = Metabolism in plasma of mouse (Test Example 4); type: in vitro ADME; set-up: unit not given here
Procedure: as §1, §2

[7] = Plasma stability test, conversion in fresh human plasma (Test Example 2); type: in vitro ADME; conditions: for Compound of Example 5 concentration in plasma: human plasma, 37° C.
Procedure: The compound of Example 5 and the compound of formula I.
Human fresh plasma was donated by volunteers with informed consent.
1.3 Preparation of Solution of the Compound
A certain amount of the compound of Example 5 was weighed and DMSO was added to prepare a 30 mM stock solution. A certain volume of the stock solution was diluted with DMSO to prepare solution I at a concentration of 1600 μM. Then a certain volume of the 1600 μM solution I was diluted with 45% methanol to prepare working solution II at a concentration of 16 μM. The 30 mM stock solution and the 1600 μM solution […] for the compound of formula I were also prepared by the above method.
as §1
1.5 Preparation of Standard Curve
The previously 1600 μM solution I was diluted with acetonitrile to prepare the standard curve working solution with concentrations of 160, 400, 1600, 4000, 8000, 16000 and 32000 ng/mL. The concentration of QC working solution was 480, 1920 and 25600 ng/mL. 5 μL of the standard curve working solution and QC working solution were added to 75 μL plasma to obtain the standard curve samples with final concentrations of 10, 25, 100, 250, 500, 1000 and 2000 ng/mL and QC samples with final concentrations of 30, 120 and 1600 ng/mL. 240 μL of acetocyano containing the internal standard was then added into the samples quickly, which was then shaken in a shaker at 800 rpm for 10 min and centrifuged at 3700 rpm at 4° C. for 20 min. The supernatant was collected and analyzed by LC-MS, and the injection volume was 2 μL.
The standard curve of the compound of formula I and QC sample were prepared by the above method.

[8] = system: Red blood cells (RBC); assay: Hemolytic effect (Test Example 8); type: cell-based, rabbits; conditions: rabbit red blood cell 2% suspension, PBS
Procedure: Red blood cells (RBC) were collected from the jugular vein or central ear artery of rabbits (10 ml of EDTA whole blood). The blood was put in a conical flask with glass beads and shaken for 10 minutes to remove fibrinogen, resulting in defibrinated blood. About 10 times the amount of sodium chloride solution was added to the defibrinated blood, which was then shaken well and centrifuged at 1500 rpm for 10 minutes. The supernatant was removed and the precipitated red blood cells were washed with sodium chloride injection for 3 times according to the above method, until the supernatant was observed colorless. The obtained red blood cells were prepared into a 2% (v/v) suspension with sodium chloride injection for later use.
The test samples (the compound of Example 5 and the compound of Example 19) were respectively dissolved in PBS (pH 7.4 or pH 5) and filtered to prepare 0.4 mg/ml, 0.8 mg/ml, 1.2 mg/ml, 1.6 mg/ml and 2 mg/ml solutions for later use.
A certain amount of test sample solution was added to the above […] for testing in the supernatant.
The sample should be further observed under a microscope, and if red blood cells can be seen as aggregated, then coagulation has occurred. The hemolytic effect of the compounds of the present disclosure was determined by using this method.

[9] = Pharmacokinetic test in cynomolgus monkeys, Example 5 (Test Example 6); type: in vivo; conditions: for AUC(0-t) / Cmax / Tmax: cynomolgus monkey, iv 2 mg/kg Example 5
Procedure: Cynomolgus monkeys were used as the test animals. The plasma drug concentration at different time points after iv administration of the compound of Example 5 by injection was determined using LC/MS/MS method. The in vivo pharmacokinetic of the compound of the present invention in cynomolgus monkeys was studied, and the pharmacokinetic characteristics were evaluated.
A certain amount of the compound of Example 5 was weighed and prepared into a pH=4.0 solution by using 20 mmol/L sodium dihydrogen phosphate for later use.
The drug was administered by intravenous with injection time of about 30 min, administration dose of 2 mg/kg, administration concentration of 0.4 mg/ml and administration volume of 5 ml/kg.
Blood was collected from the femoral vein before administration and 5 min, 0.25 h, 0.5 h, 1 h, 2 h, 4 h, 6 h, 8 h, 10 h, 24 h and 48 h after administration. About 0.6 ml of was collected for each sample, which was subject to anticoagulation using heparin sodium and placed on ice immediately after collection. The blood samples were placed in labeled centrifuge tubes after collection, and plasma was separated by centrifugation (centrifugation conditions: centrifugal force 2200 g, centrifugation at 2-8° C. for 10 min).
The content of the compound of Example 5 and rolapitant in plasma samples was determined by LC/MS/MS.

Compound: C[C@@H](OC[C@@]1(c2ccccc2)CC[C@]2(CCC(=O)N2)CN1C(=O)OCCCOP(=O)(O)O)c1cc(C(F)(F)F)cc(C(F)(F)F)c1 [Example 2]
- AUC(0-t) ([1]; read-out: AUC0-t of the compound of the example): 41.6 ng·h/mL
- AUC(0-inf) ([1]; read-out: AUC0-∞ of the compound of the example): 42.2 ng·h/mL
- MRT inf ([1]; read-out: MRT 0-∞ of the compound of the example): 4.38 min
- half-life ([1]; read-out: T1/2 of the compound of the example (converted)): 5.22 min
- plasma concentration of the compounds of the examples [2]: 97.70
- Chemical stability [3]: Good (purity reduced by <0.5% after placing for 7 days)
- solubility ([4]; PH = 5): 9050 µg/mL (≈ 13.3 mM)
- conversion into rolapitant (in words) [5]: basically no convertion into rolapitant in human plasma, or only a slight conversion
- plasma concentration of the compounds of the examples [5]: 99.00
- plasma concentration of the compounds of the examples [6]: 91.17

Compound: CC(C)[C@H](N)C(=O)OCOC(=O)N1C[C@@]2(CCC(=O)N2)CC[C@@]1(CO[C@H](C)c1cc(C(F)(F)F)cc(C(F)(F)F)c1)c1ccccc1 [Example 5]
- Chemical stability [3]: Good (purity reduced by <0.5% after placing for 7 days)
- Compound of Example 5 concentration in plasma ([7]; 0 min, 1 μM start): 1 µM
- Compound of Example 5 concentration in plasma ([7]; 15 min): 0.53 µM
- Compound of Example 5 concentration in plasma ([7]; 30 min): 0.12 µM
- Compound of Example 5 concentration in plasma ([7]; 60 min): 0.01 µM
- Compound of Example 5 concentration in plasma ([7]; 90 min): 0.00 µM
- Compound of Example 5 concentration in plasma ([7]; 120 min): 0.00 µM
- Compound of Example 5 concentration in plasma ([7]; 180 min): 0.00 µM
- concentration with hemolytic effect [8]: ≥ 40000 ng/mL
- solubility ([4]; phosphate buffer, PH = 4): > 10000 µg/mL
- in vivo transformation into rolapitant (in words) ([9]; cynomolgus monkeys, iv 2 mg/kg): most of the compound were rapidly transformed into the active metabolite rolapitant
- AUC(0-t) ([9]; plasma, analyte Example 5, read-out: AUC0-t): 0.77 ± 0.29 ng·h/mL
- Cmax ([9]; plasma, analyte Example 5, read-out: Cmax): 2.28 ± 0.39 ng/mL
- Tmax ([9]; plasma, analyte Example 5, read-out: Tmax): 6.6 ± 7.2 min

Compound: C[C@@H](OC[C@@]1(c2ccccc2)CC[C@]2(CCC(=O)N2C(=O)CCC(=O)O)CN1)c1cc(C(F)(F)F)cc(C(F)(F)F)c1 [Example 8]
- plasma concentration of the compounds of the examples [2]: 59.89
- Chemical stability [3]: Moderate (purity reduced by 0.5%~2.0% after placing for 7 days)
- solubility ([4]; PH = 5): 1370 µg/mL (≈ 2.28 mM)
- conversion rate into rolapitant [5]: ~46%
- plasma concentration of the compounds of the examples [5]: 54.54
- plasma concentration of the compounds of the examples [6]: 61.67

Compound: C[C@@H](OC[C@@]1(c2ccccc2)CC[C@]2(CCC(=O)N2)CN1C(=O)OCOP(=O)(O)O)c1cc(C(F)(F)F)cc(C(F)(F)F)c1 [Example 19]
- concentration with no hemolytic effect [8]: up to 2 mg/ml

Compound: (5S,8S)-8-[{(1R)-1-(3,5-bis-(trifluoromethyl)phenyl)-ethoxy}-methyl]-8-phenyl-1,7-diazaspiro[4.5]dec-2-one [Rolapitant, reference compound]
- Compound of formula 1 concentration formed from Example 5 ([7]; human plasma incubated with 1 μM Example 5, 0 min): 0.00 µM
- Compound of formula 1 concentration formed from Example 5 ([7]; human plasma incubated with 1 μM Example 5, 15 min): 0.78 µM
- Compound of formula 1 concentration formed from Example 5 ([7]; human plasma incubated with 1 μM Example 5, 30 min): 1.18 µM
- Compound of formula 1 concentration formed from Example 5 ([7]; human plasma incubated with 1 μM Example 5, 60 min): 1.22 µM
- Compound of formula 1 concentration formed from Example 5 ([7]; human plasma incubated with 1 μM Example 5, 90 min): 1.31 µM
- Compound of formula 1 concentration formed from Example 5 ([7]; human plasma incubated with 1 μM Example 5, 120 min): 1.28 µM
- Compound of formula 1 concentration formed from Example 5 ([7]; human plasma incubated with 1 μM Example 5, 180 min): 1.02 µM
- AUC(0-t) ([9]; analyte rolapitant): 4326.87 ± 1820.65 ng·h/mL
- Cmax ([9]; analyte rolapitant): 315.25 ± 97.08 ng/mL
- Tmax ([9]; analyte rolapitant): 8.4 ± 6 min
